20 molecules from paper PMC12089509, “NorA Efflux Pump Inhibitors: Expanding SAR Knowledge of Pyrazolo[4,3‐c][1,2]benzothiazine 5,5‐Dioxide Derivatives” (Archiv Der Pharmazie, 2025) can be followed below.

Assay [1] deals with T1, S. aureus NorA efflux pump (SA-1199B strain, overexpresses the norA gene) (Staphylococcus aureus, UniProt P0A0J7).
T1 construct: endogenous in cells; host or cells: S. aureus SA-1199B (overexpresses norA; isogenic parent SA-1199)
Briefly: EtBr efflux inhibition assay. Particulars: for inhibition at 50 µM: read-out: EtBr efflux inhibition (%), compound at 50 µM, SA-1199B; for inhibition at 10 µM: read-out: EtBr efflux inhibition (%), compound at 10 µM, SA-1199B. It is filed as cell-based. The method, then: EtBr efflux inhibition assays were conducted using the S. aureus SA‐1199B strain, which overexpresses the norA gene and has an A116E GrlA substitution. Each compound was tested at 50 µM (see Figure 2). The starting hit compound 1 was used as the internal standard for comparison with the previously reported data.
The cells were grown overnight in cation‐supplemented Mueller–Hinton broth (CAMHB) without any additives at 35°C. The organisms were subsequently diluted into CAMHB to obtain an optical density at 600 nm (OD600) of 0.7–0.8. Subsequently, the cells were pelleted and resuspended at an OD600 of 0.8 in 0.5 mL aliquots of CAMHB containing EtBr and carbonyl cyanide m‐chlorophenylhydrazone (CCCP) to “load” the cells with EtBr (final concentrations of 25 μM for EtBr and 100 μM for CCCP). Following 20 min of incubation at room temperature, the cells were pelleted and resuspended in 1 mL of fresh CAMHB. Immediately thereafter, 200 μL aliquots were transferred into the wells of white 96‐well plates, which either lacked or contained 50 or 10 μM of each test compound. Fluorescence was monitored continuously using a microplate reader (Infinite M200 Pro, TECAN) at excitation and emission wavelengths of 485 and 645 nm, respectively, for a period of 5 min. The experiments were conducted in triplicate, with two technical replicates per biological replicate. The efflux activity of the SA‐1199B strain was expressed as a percentage of fluorescence decrease over a 5‐min time course. The inhibition of this efflux by the test compounds was determined using the following equation: ([efflux in the absence] ‐ [efflux in the presence of test [compound])/[efflux in the absence of test compound] × 100, which yielded the percent efflux inhibition observed.
^a Experiments were performed in triplicate with two technical replicates per biological replicate. Efflux activity of SA-1199B was expressed as percent fluorescence decrease over a 5 min time course. Inhibition of this efflux by test compounds was determined using the equation [efflux in the absence] − [efflux in the presence of test [compound]/[efflux in the absence of test compound] × 100, giving the percent efflux inhibition observed.

Assay [2] relates to Staphylococcus aureus SA-1199B. Briefly: MIC determination (broth microdilution) against SA-1199B. It is filed as cell-based. Particulars: SA1199B. From the text: In this study, the S. aureus strains SA‐1199B (overexpressing norA) and its isogenic parent SA‐1199 (wild type), the pair SA‐K1902 (norA‐depleted) and SA‐K2378 (complemented with a pCU1 plasmid harboring the norA promoting and coding region from SA‐1199B), were used to test EPI activity as described in a previous study. Furthermore, the S. aureus ATCC 29213 was used as the reference strain in MIC determination experiments.
For orientation: Dilution methods test growth across graded concentrations, often in twofold steps.

Assay [3] deals with Staphylococcus aureus SA-1199B. It is filed as cell-based. The source says: For purposes of comparison, compound 1 was included as a reference.
The subject of assay [4] is S. aureus SA-1199 (wild type). Nature of the assay: MIC determination against wild-type SA-1199. It is filed as cell-based. Particulars: Staphylococcus aureus, compound alone. The source says:
(§1) This finding aligns with their mechanism of action, which involves the inhibition of NorA, which is only basally expressed in the wild‐type SA‐1199 strain.

Assay [5] deals with S. aureus SA-1199 (wild type). Nature of the assay: Synergistic assay with CPX against wild-type SA-1199. It is filed as cell-based, Staphylococcus aureus. Particulars: EPI at 3.13 µg/mL with CPX.
Source text: as §1

Like-named read-outs stand apart in the source and are kept apart here.

T1 sequence (P0A0J7 whole entry): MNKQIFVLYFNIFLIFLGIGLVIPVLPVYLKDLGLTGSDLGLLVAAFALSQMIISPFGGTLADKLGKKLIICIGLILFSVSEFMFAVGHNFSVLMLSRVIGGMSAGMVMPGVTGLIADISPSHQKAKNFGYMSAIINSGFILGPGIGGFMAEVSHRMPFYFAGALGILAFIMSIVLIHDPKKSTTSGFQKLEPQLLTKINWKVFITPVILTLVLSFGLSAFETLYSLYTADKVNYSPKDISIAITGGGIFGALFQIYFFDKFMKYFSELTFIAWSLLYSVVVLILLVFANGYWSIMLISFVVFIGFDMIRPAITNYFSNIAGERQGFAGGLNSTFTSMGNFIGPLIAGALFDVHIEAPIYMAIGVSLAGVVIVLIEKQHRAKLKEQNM

Regarding `CN1c2c(-c3ccc(Cl)cc3)nn(-c3ccc([N+](=O)[O-])cc3)c2-c2ccccc2S1(=O)=O` [Compound 2], the inhibition at 50 µM in assay [1] stood at 0%. The MIC in assay [2] was above 50 µg/mL.

With `Cc1nn(-c2ccc([N+](=O)[O-])cc2)c2c1NS(=O)(=O)c1ccccc1-2` [Compound 4], the inhibition at 50 µM in assay [1] amounted to 0%. In assay [2], this molecule came in with an MIC above 50 µg/mL.

`Cc1nn(-c2ccc([N+](=O)[O-])cc2)c2c1S(=O)(=O)Nc1ccccc1-2` [Compound 5, 3‐Methyl‐1‐(4‐nitrophenyl)‐1,5‐dihydropyrazolo[4,3‐c][2,1]benzothiazine 4,4‐dioxide]: the inhibition at 50 µM in assay [1] amounted to 0%. This molecule also showed an MIC in assay [2] above 50 µg/mL.

As to `Cc1nn(-c2ccc([N+](=O)[O-])cc2)c2c1N(C)S(=O)(=O)c1ccccc1-2` [Compound 6], the inhibition at 50 µM in assay [1] turned out to be 22%. The molecule further showed an MIC in assay [2] above 50 µg/mL.

On to `Cc1nn(-c2ccc([N+](=O)[O-])cc2)c2c1S(=O)(=O)N(C)c1ccccc1-2` [Compound 7, 3,5‐Dimethyl‐1‐(4‐nitrophenyl)‐1,5‐dihydropyrazolo[4,3‐c][2,1]benzothiazine 4,4‐dioxide], for which, in assay [1], the inhibition at 50 µM stood at 3%. Besides, the MIC in assay [2] is above 50 µg/mL.

For the molecule `Cc1cc(-c2ccccc2NS(C)(=O)=O)n(-c2ccccc2)n1` [Compound 8, N‐[2‐(3‐Methyl‐1‐phenyl‐1H‐pyrazol‐5‐yl)phenyl]methanesulfonamide], in assay [1], the inhibition at 50 µM turned out to be 0%. This molecule also displayed an MIC in assay [2] above 50 µg/mL. Further, the “N° fold CPX MIC reduction” value in assay [3] (EPI at 12.5 µg/mL) turned out to be 2 fold.

Consider `O=S1(=O)Nc2c(-c3ccc(Cl)cc3)n[nH]c2-c2ccccc21` [Compound 9, 3‐(4‐Chlorophenyl)‐1,4‐dihydropyrazolo[4,3‐c][1,2]benzothiazine 5,5‐dioxide], for which the inhibition at 50 µM in assay [1] was 12%. The molecule further gave an MIC in assay [2] above 50 µg/mL. The “N° fold CPX MIC reduction” value in assay [3] (EPI at 12.5 µg/mL) was 2 fold.

With `CN1c2c(-c3ccccc3)n[nH]c2-c2ccccc2S1(=O)=O` [Compound 11, 4‐Methyl‐3‐phenyl‐1,4‐dihydropyrazolo[4,3‐c][1,2]benzothiazine 5,5‐dioxide], the inhibition at 50 µM in assay [1] is below 70%. For the same molecule, the MIC in assay [2] is above 50 µg/mL.

For `CN1c2c(-c3ccc(F)cc3)n[nH]c2-c2ccccc2S1(=O)=O` [Compound 12, 3‐(4‐Fluorophenyl)‐4‐methyl‐1,4‐dihydropyrazolo[4,3‐c][1,2]benzothiazine 5,5‐dioxide], the inhibition at 10 µM in assay [1] amounted to 22%. In addition, in assay [1], the inhibition at 50 µM amounted to 87%. Further, the MIC in assay [2] and in assay [4] was above 50 µg/mL in each case. The “synergistic effect with CPX” value in assay [5] is on record as “did not show any synergistic effect”.

Take `CN1c2c(-c3ccc(F)c(Cl)c3)n[nH]c2-c2ccccc2S1(=O)=O` [Compound 13, 3‐(3‐Chloro‐4‐fluorophenyl)‐4‐methyl‐1,4‐dihydropyrazolo[4,3‐c][1,2]benzothiazine 5,5‐dioxide]: in assay [1], the inhibition at 10 µM turned out to be 0%. In assay [1], the inhibition at 50 µM worked out at 100%. Moreover, the minimum inhibitory concentration (MIC) in assay [2] and in assay [4] was above 50 µg/mL throughout. The “N° fold CPX MIC reduction” value in assay [3] (EPI at 3.12 µg/mL) stood at 2 fold; in assay [3] (EPI at 12.5 µg/mL), 4 fold. Besides, the “synergistic effect with CPX” value in assay [5] is “did not show any synergistic effect”.

Consider `CCN1c2c(-c3ccc(F)cc3)n[nH]c2-c2ccccc2S1(=O)=O` [Compound 14, 4‐Ethyl‐3‐(4‐fluorophenyl)‐1,4‐dihydropyrazolo[4,3‐c][1,2]benzothiazine 5,5‐dioxide], for which the inhibition at 50 µM in assay [1] was 57%. In assay [2], this molecule displayed an MIC above 50 µg/mL. Besides, the “N° fold CPX MIC reduction” value in assay [3] (EPI at 12.5 µg/mL) stood at 2 fold.

As for `O=S1(=O)c2ccccc2-c2[nH]nc(-c3ccc(F)cc3)c2N1CCCO` [Compound 15, 3‐[3‐(4‐Fluorophenyl)‐5,5‐dioxidopyrazolo[4,3‐c][1,2]benzothiazin‐4(1H)‐yl]propan‐1‐ol], the inhibition at 50 µM in assay [1] was found to be 17%. In assay [2], this molecule gave an MIC above 50 µg/mL. Further, the “N° fold CPX MIC reduction” value in assay [3] (EPI at 12.5 µg/mL) is listed as 2 fold.

For `CNC(=O)CN1c2c(-c3ccc(F)cc3)n[nH]c2-c2ccccc2S1(=O)=O` [Compound 16, 2‐[3‐(4‐Fluorophenyl)‐5,5‐dioxidopyrazolo[4,3‐c][1,2]benzothiazin‐4(1H)‐yl]‐N‐methylacetamide], the inhibition at 50 µM in assay [1] is 22%. Moreover, in assay [2], the MIC is above 50 µg/mL. In addition, the “N° fold CPX MIC reduction” value in assay [3] (EPI at 12.5 µg/mL) was 2 fold.

Take `CNCCN1c2c(-c3ccc(F)cc3)n[nH]c2-c2ccccc2S1(=O)=O` [Compound 17, 2‐[3‐(4‐Fluorophenyl)‐5,5‐dioxidopyrazolo[4,3‐c][1,2]benzothiazin‐4(1H)‐yl]‐N‐methylethanamine]: the inhibition at 50 µM in assay [1] worked out at 57%. In addition, the MIC in assay [2] is above 50 µg/mL.

`CN1c2c(-c3ccc(Cl)cc3)nn(CCN3CCCCC3)c2-c2ccccc2S1(=O)=O` [Compound 18, 3‐(4‐Chlorophenyl)‐4‐methyl‐1‐(2‐piperidin‐1‐ylethyl)‐1,4‐dihydropyrazolo[4,3‐c][1,2]benzothiazine 5,5‐dioxide]: the inhibition at 10 µM in assay [1] amounted to 37%. Moreover, the inhibition at 50 µM in assay [1] is above 70%. In addition, the MIC in assay [2] and in assay [4] was above 50 µg/mL each time. Moreover, the “N° fold CPX MIC reduction” value in assay [3] (EPI at 6.25 µg/mL) is 2 fold; in assay [3] (EPI at 12.5 µg/mL), 4 fold. Further, the “synergistic effect with CPX” value in assay [5] was “did not show any synergistic effect”.

As to `CN1c2c(-c3ccc(F)cc3)nn(C)c2-c2ccc(OCCN3CCCCC3)cc2S1(=O)=O` [Compound 20, 3‐(4‐Fluorophenyl)‐1,4‐dimethyl‐7‐(2‐piperidin‐1‐ylethoxy)‐1,4‐dihydropyrazolo[4,3‐c][1,2]benzothiazine 5,5‐dioxide], the inhibition at 10 µM in assay [1] was determined as 33%. Further, the inhibition at 50 µM in assay [1] is above 70%. Further, the MIC in assay [2] and in assay [4] was above 50 µg/mL in each case. Further, the “N° fold CPX MIC reduction” value in assay [3] (EPI at 6.25 µg/mL) came to 2 fold; in assay [3] (EPI at 12.5 µg/mL), 8 fold. For the same molecule, in assay [5], the “synergistic effect with CPX” value was “did not show any synergistic effect”.

Consider `CN1c2c(-c3ccc(F)cc3)nn(C)c2-c2ccc(OCC(O)CO)cc2S1(=O)=O` (stereo not drawn) [Compound 21, 3‐{[3‐(4‐Fluorophenyl)‐1,4‐dimethyl‐5,5‐dioxido‐1,4‐dihydropyrazolo[4,3‐c][1,2]benzothiazin‐7‐yl]oxy}propane‐1,2‐diol], for which the inhibition at 50 µM in assay [1] is 0%. In assay [2], this molecule showed an MIC above 50 µg/mL.

For `COc1ccc2c(c1)S(=O)(=O)N(C)c1c(-c3ccc(F)cc3)nn(C)c1-2` [Compound 22, 3‐(4‐Fluorophenyl)‐7‐methoxy‐1,4‐dimethyl‐1,4‐dihydropyrazolo[4,3‐c][1,2]benzothiazine 5,5‐dioxide], the inhibition at 50 µM in assay [1] was found to be 22%. In assay [2], this molecule showed an MIC above 50 µg/mL. Further, in assay [3] (EPI at 12.5 µg/mL), the “N° fold CPX MIC reduction” value is given as 2 fold.

Regarding `CCN(CC)CCOC1=C(C(=O)c2ccc(F)cc2)N(C)S(=O)(=O)c2ccccc21` [Compound 23, {4‐[2‐(Diethylamino)ethoxy]‐2‐methyl‐1,1‐dioxido‐2H‐1,2‐benzothiazin‐3‐yl}(4‐fluorophenyl)methanone], in assay [1], the inhibition at 50 µM was 36%. Moreover, in assay [2], the MIC was above 50 µg/mL. For the same molecule, the “N° fold CPX MIC reduction” value in assay [3] (EPI at 12.5 µg/mL) came out at 2 fold.

For `CN1C(C(=O)c2ccc(F)cc2)=C(OCCN2CCCCC2)c2ccccc2S1(=O)=O` [Compound 24, (4‐Fluorophenyl)[2‐methyl‐1,1‐dioxido‐4‐(2‐piperidin‐1‐ylethoxy)‐2H‐1,2‐benzothiazin‐3‐yl]methanone], in assay [1], the inhibition at 50 µM is 38%. Also, the MIC in assay [2] was above 50 µg/mL. The “N° fold CPX MIC reduction” value in assay [3] (EPI at 12.5 µg/mL) was 2 fold.

For orientation: inhibition means the percentage by which the read-out fell short of the control. A word on the MIC: it is the lowest concentration that inhibits growth of the organism.
